According to patent US8168592B2 (Amgen Inc., priority 2005, dated 2012):
Where two headings read alike, the source gives them in different places. Blank lines part the entries; values can stand above or below the compound they belong to. Square brackets hold non-standard residues; d marks the D form. Peptide text beside a SMILES is read from it. 1Nal = N[C@@H](Cc1cccc2ccccc12)C(=O)O; hArg = N=C(N)NCCCC[C@H](N)C(=O)O; Cit = NC(=O)NCCC[C@H](N)C(=O)O

Experiments:
[1] = target: T1, CGRP1 receptor (human neuroblastoma cell (SK-N-MC) membrane) (Homo sapiens, UniProt O60894+Q16602); assay: CGRP1 binding assay (125I-hαCGRP displacement)
T1 construct: human neuroblastoma cell (SK-N-MC) membrane suspension; purchased PerkinElmer; host or cells: SK-N-MC human neuroblastoma cell membranes (endogenous receptor)
T1 sequence (Q16602 23-461): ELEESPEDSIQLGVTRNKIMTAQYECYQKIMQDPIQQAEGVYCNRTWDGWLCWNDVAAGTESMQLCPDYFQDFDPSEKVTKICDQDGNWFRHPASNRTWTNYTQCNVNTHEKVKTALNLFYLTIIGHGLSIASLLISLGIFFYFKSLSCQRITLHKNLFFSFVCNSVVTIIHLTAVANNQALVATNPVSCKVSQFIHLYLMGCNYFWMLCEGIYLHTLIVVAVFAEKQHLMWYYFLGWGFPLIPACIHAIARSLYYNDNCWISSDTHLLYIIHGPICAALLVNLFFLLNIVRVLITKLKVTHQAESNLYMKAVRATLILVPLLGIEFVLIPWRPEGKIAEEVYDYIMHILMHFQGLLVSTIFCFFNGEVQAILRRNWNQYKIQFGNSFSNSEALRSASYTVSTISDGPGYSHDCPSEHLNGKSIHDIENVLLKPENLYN
T1 sequence (O60894 27-148): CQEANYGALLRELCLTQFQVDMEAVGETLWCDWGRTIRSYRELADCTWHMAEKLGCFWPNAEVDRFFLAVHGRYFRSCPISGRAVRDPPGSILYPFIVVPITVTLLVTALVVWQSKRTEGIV
Procedure: CGRP1 binding experiments. […] The plates were incubated at room temperature for 2 hour with shaking at 60 rpm, then the contents of each well were filtered over 0.5% polyethyleneimine (PEI)-treated (at least one hour) GF/C 96-well filter plates. The GF/C filter plates were washed 6 times with ice-cold 50 mM Tris, pH 7.5 and dried in an oven at 55 C for 1 hour. The bottoms of the GF/C plates were then sealed, and 40 μl Microscint™ 20 was added to each well, then the tops of the GF/C plates were sealed with TopSeal™-A, a press-on adhesive sealing film, and the GF/C plates were counted with TopCount NXT (Packard). The data were analyzed by using ActivityBase (IDBS) or Prizm (GraphPad) software.

CGRP1 receptor = target: T2, CGRP1 receptor (Homo sapiens, UniProt O60894+Q16602); assay: in vitro CGRP1 receptor mediated cAMP assay in SK-N-MC cells; format: cell-based; conditions: read-out: IC50
T2 construct: SK-N-MC cells express CRLR and RAMP1, which form CGRP1 receptor; endogenous in cells; host or cells: SK-N-MC human neuroblastoma cells
T2 sequence (Q16602 23-461): as the sequence (Q16602 23-461) above
T2 sequence (O60894 27-148): as the sequence (O60894 27-148) above
Outline: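 Intracellular cAMP served as the Gs-coupled CGRP1 readout in endogenously expressing SK-N-MC cells. After a 15-minute room-temperature step in plasma-free medium, cell lysates (30 minutes, 37° C) went into a competitive ELISA with a cAMP-AP conjugate and anti-cAMP antibody for 1 hour, then a 30-minute substrate enhancer step before reading.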

[2] = monkey pharmacokinetic studies; conditions: cynomolgus monkey, in vivo, iv, 6 mg/kg
Procedure: Monkey pharmacokinetic studies. […] A complete blood chemistry panel was performed on each monkey prior to each study day to obtain baseline values and ensure hematological recovery. A catheter was placed in the cephalic vein of three male Cynomolgus monkeys (Macaca fascicularis) for blood sampling during the study. For the intravenous (iv) leg of the study, a catheter was also placed in a saphenous vein for infusion of test compound. On each study day, the monkeys were placed in restraining chairs for the first 4 h of the study to facilitate drug administration and blood sampling. For administration of antagonist, each monkey received solubilized peptide (dose and SEQ ID listed in Table 11 below) either as a 30-min intravenous infusion (4 mL/kg/h) or as a single subcutaneous bolus (approx. 1.0 mL/animal). Blood samples were collected from each study animal at various times during and after drug administration, plasma samples (100 μL) were isolated by centrifugation and stored at −70° C. until analysis. For monkeys receiving intravenous infusion, such a sample was also taken at 20 min during the infusion.

[3] = in vitro stability in 10% human plasma, LC-MS/MS; format: in vitro ADME; conditions: room temperature, 100 ng/ml
Procedure: Consequently, the stability of select, non-PEGylated analogs was evaluated in vitro in the presence of 10% rat or human plasma. Briefly, samples of each peptide were diluted to 100 ng/ml into PBS containing 10% of rat or human plasma. Each sample was then incubated at room temperature and analyzed by LC-MS/MS to quantitate the intact peptide remaining at select time points over 6 hours.

[4] = in vitro stability in 5% mouse plasma, sandwich ELISA
Procedure: Peptide samples at 2 mg/ml in PBS were spiked with 5% mouse plasma and analyzed by sandwich ELISA (as described in Example 3 herein above) over 48 hours at room temperature. Peptide integrity was determined by sandwich ELISA requiring intact peptide termini.

Compound: 687 (Ac-WVTHRLAGLLSRSGGVVK(20 kDa PEG)NNFVPTDVGPFAF-NH2) [compound 687]
Ki ([1]; Table 3B): 0.49 nM

Compound: 685 (Ac-WVTHRLAGLLSRSGGVVK(20 kDa PEG)NNFVPTDVGPFAF-NH2) [compound 685]
Ki ([1]; Table 3B): 155 nM

Compound: Ac-WVTHRLAGLLSRSGGVVKNNFVPTDVGPFAF-NH2 [compound 5]
Ki ([1]; Table 3B): 0.06 nM | IC50 (CGRP1 receptor; Table 3, unconjugated CGRP peptide analogs, n = 2-4): 0.14 nM | IC50 (CGRP1 receptor; Table 4, 20 k PEG-conjugated vs unconjugated peptides, n = 2-4): 0.14 nM

Compound: CC(=O)NCSC[C@H](NC(=O)[C@@H](NC(=O)[C@H](C)NC(=O)[C@@H](NC(=O)[C@H](CC(=O)O)NC(=O)[C@H](CO)NC(=O)[C@H](C)N)[C@@H](C)O)[C@@H](C)O)C(=O)N[C@H](C(=O)N[C@H](C(=O)N[C@@H](Cc1c[nH]cn1)C(=O)N[C@@H](CCCNC(=N)N)C(=O)N[C@@H](CC(C)C)C(=O)N[C@@H](C)C(=O)NCC(=O)N[C@@H](CC(C)C)C(=O)N[C@@H](CC(C)C)C(=O)N[C@@H](CO)C(=O)N[C@@H](CCCNC(=N)N)C(=O)N[C@@H](CO)C(=O)NCC(=O)NCC(=O)N[C@H](C(=O)N[C@H](C(=O)N[C@@H](CCCCN)C(=O)N[C@@H](CC(N)=O)C(=O)N[C@@H](CC(N)=O)C(=O)N[C@@H](Cc1ccccc1)C(=O)N[C@H](C(=O)N1CCC[C@H]1C(=O)N[C@H](C(=O)N[C@@H](CC(N)=O)C(=O)N[C@H](C(=O)NCC(=O)N[C@@H](CO)C(=O)N[C@@H](CCCCN)C(=O)N[C@@H](C)C(=O)N[C@@H](Cc1ccccc1)C(N)=O)C(C)C)[C@@H](C)O)C(C)C)C(C)C)C(C)C)[C@@H](C)O)C(C)C [compound 707]
Ki ([1]; Table 3B): 20.8 nM

Compound: CC(=O)N[C@@H](Cc1c[nH]c2ccccc12)C(=O)N[C@H](C(=O)N[C@H](C(=O)N[C@@H](Cc1c[nH]cn1)C(=O)N[C@@H](CCCNC(N)=O)C(=O)N[C@@H](CC(C)C)C(=O)N[C@@H](C)C(=O)NCC(=O)N[C@@H](CC(C)C)C(=O)N[C@@H](CC(C)C)C(=O)N[C@@H](CO)C(=O)N[C@@H](CCCNC(N)=O)C(=O)N[C@@H](CO)C(=O)NCC(=O)NCC(=O)N[C@H](C(=O)N[C@H](C(=O)N[C@@H](CCCCNC(=N)N)C(=O)N[C@@H](CCCCN)C(=O)N[C@@H](CC(N)=O)C(=O)N[C@@H](Cc1ccccc1)C(=O)N[C@H](C(=O)N1CCC[C@H]1C(=O)N[C@H](C(=O)N[C@@H](CC(=O)O)C(=O)N[C@H](C(=O)NCC(=O)N1[C@H](C(=O)N[C@@H](Cc2ccccc2)C(=O)N[C@@H](C)C(=O)N[C@@H](Cc2ccccc2)C(N)=O)C[C@@H]2CCCC[C@@H]21)C(C)C)[C@@H](C)O)C(C)C)C(C)C)C(C)C)[C@@H](C)O)C(C)C [SEQ ID NO: 658]
AUC0-inf [2]: 17000 ng·h/mL | AUC0-t [2]: 16900 ng·h/mL | MRT [2]: 25.2 min | Vd [2]: 0.174 L/kg | clearance [2]: 6.65 mL/min/kg | half-life [2]: 48 min

Compound: Ac-WVTHRLAGLLSRSGGVVKNNFVPTDVGPFAF-NH2 [compound 684]
Ki ([1]; Table 3B): 0.08 nM

Compound: CC(=O)N[C@@H](Cc1c[nH]c2ccccc12)C(=O)N[C@H](C(=O)N[C@H](C(=O)N[C@@H](Cc1c[nH]cn1)C(=O)N[C@@H](CCCNC(N)=O)C(=O)N[C@@H](CC(C)C)C(=O)N[C@@H](C)C(=O)NCC(=O)N[C@@H](CC(C)C)C(=O)N[C@@H](CC(C)C)C(=O)N[C@@H](CO)C(=O)N[C@@H](CCCNC(N)=O)C(=O)N[C@@H](CO)C(=O)NCC(=O)NCC(=O)N[C@H](C(=O)N[C@H](C(=O)N[C@@H](CCCCNC(=N)N)C(=O)N[C@@H](CCCCN)C(=O)N[C@@H](CC(N)=O)C(=O)N[C@@H](Cc1ccccc1)C(=O)N[C@H](C(=O)N1CCC[C@H]1C(=O)N[C@H](C(=O)N[C@@H](CC(=O)O)C(=O)N[C@H](C(=O)NCC(=O)N1CCC[C@H]1C(=O)N[C@@H](Cc1cccc2ccccc12)C(=O)N[C@@H](C)C(=O)N[C@@H](Cc1ccccc1)C(N)=O)C(C)C)[C@@H](C)O)C(C)C)C(C)C)C(C)C)[C@@H](C)O)C(C)C [compound 674] (Ac-WVTH[Cit]LAGLLS[Cit]SGGVV[hArg]KNFVPTDVGP[1Nal]AF-NH2)
Ki ([1]; Table 3A): 0.64 nM | IC50 (CGRP1 receptor; Table 2A): 1.31 to 1.51 nM

Compound: CC(C)C[C@H](NC(=O)CNC(=O)[C@H](C)NC(=O)[C@H](CC(C)C)NC(=O)[C@H](CCCNC(=N)N)NC(=O)[C@H](Cc1c[nH]cn1)NC(=O)[C@@H](NC(=O)[C@@H](NC(=O)[C@H](CO)NC(=O)[C@@H](NC(=O)[C@H](C)NC(=O)[C@@H](NC(=O)[C@H](CC(=O)O)NC(=O)[C@H](CO)NC(=O)[C@H](C)N)[C@@H](C)O)[C@@H](C)O)C(C)C)[C@@H](C)O)C(=O)N[C@@H](CC(C)C)C(=O)N[C@@H](CO)C(=O)N[C@@H](CCCNC(=N)N)C(=O)N[C@@H](CO)C(=O)NCC(=O)NCC(=O)N[C@H](C(=O)N[C@H](C(=O)N[C@@H](CCCCN)C(=O)N[C@@H](CC(N)=O)C(=O)N[C@@H](CC(N)=O)C(=O)N[C@@H](Cc1ccccc1)C(=O)N[C@H](C(=O)N1CCC[C@H]1C(=O)N[C@H](C(=O)N[C@@H](CC(N)=O)C(=O)N[C@H](C(=O)NCC(=O)N[C@@H](CO)C(=O)N[C@@H](CCCCN)C(=O)N[C@@H](C)C(=O)N[C@@H](Cc1ccccc1)C(N)=O)C(C)C)[C@@H](C)O)C(C)C)C(C)C)C(C)C [compound 709]
Ki ([1]; Table 3B): 12 nM

Compound: Ac-WVTHRLAGLLSRSGGVVRCNFVPTDVGPFAF-NH2 [compound 680]
Ki ([1]; Table 3B): 0.58 nM

Compound: CC(=O)N[C@@H](Cc1c[nH]c2ccccc12)C(=O)N[C@H](C(=O)N[C@H](C(=O)N[C@@H](Cc1cnc[nH]1)C(=O)N[C@@H](CCCN=C(N)N)C(=O)N[C@@H](CC(C)C)C(=O)N[C@@H](C)C(=O)NCC(=O)N[C@@H](CC(C)C)C(=O)N[C@@H](CC(C)C)C(=O)N[C@@H](CO)C(=O)N[C@@H](CCCN=C(N)N)C(=O)N[C@@H](CO)C(=O)NCC(=O)NCC(=O)N[C@H](C(=O)N[C@H](C(=O)N[C@@H](CCCN=C(N)N)C(=O)N[C@@H](CCCCN)C(=O)N[C@@H](CC(N)=O)C(=O)N[C@@H](Cc1ccccc1)C(=O)N[C@H](C(=O)N1CCC[C@H]1C(=O)N[C@H](C(=O)N[C@@H](CC(=O)O)C(=O)N[C@H](C(=O)NCC(=O)N1CCC[C@H]1C(=O)N[C@@H](Cc1ccccc1)C(=O)N[C@@H](C)C(=O)N[C@@H](Cc1ccccc1)C(N)=O)C(C)C)[C@@H](C)O)C(C)C)C(C)C)C(C)C)[C@@H](C)O)C(C)C [SEQ ID NO: 7]
% Remaining ([3]; 0 h): 100.0% | remaining at 0.17 h, 100 ng/ml ([3]; 0.17 h): 60.3% | remaining at 0.5 h, 100 ng/ml ([3]; 0.5 h): 13.8% | remaining at 1 h, 100 ng/ml ([3]; 1 h): 4.9% | remaining at 2 h, 100 ng/ml ([3]; 2 h): 0% | remaining at 3 h, 100 ng/ml ([3]; 3 h): 0% | remaining at 4 h, 100 ng/ml ([3]; 4 h): 0% | remaining at 5 h, 100 ng/ml ([3]; 5 h): 0% | remaining at 6 h, 100 ng/ml ([3]; 6 h): 0% | recovery at 0 h, 2 mg/ml [4]: 112 ± 1.8% | recovery at 4 h, 2 mg/ml [4]: 46.1 ± 60.1% | recovery at 24 h, 2 mg/ml [4]: 2.51 ± 0.573% | recovery at 48 h, 2 mg/ml [4]: 1.81 ± 0.754%

Second part, the compound after the results:

Ki ([1]; Table 3B): > 1000 nM
Compound: CC(C)[C@H](NC(=O)[C@@H](N)Cc1ccccc1)C(=O)N1CCC[C@H]1C(=O)N[C@H](C(=O)N[C@@H](CC(=O)O)C(=O)N[C@@H](C(=O)NCC(=O)N1CCC[C@H]1C(=O)N[C@@H](Cc1ccccc1)C(=O)N[C@@H](C)C(=O)N[C@@H](Cc1ccccc1)C(N)=O)C(C)C)[C@@H](C)O [compound 711]

Ki ([1]; Table 3B): > 1000 nM
Compound: CC(C)[C@H](NC(=O)[C@H](CC(=O)O)NC(=O)[C@@H](NC(=O)[C@@H]1CCCN1C(=O)[C@@H](NC(=O)[C@@H](N)Cc1ccccc1)C(C)C)[C@@H](C)O)C(=O)NCC(=O)N1CCC[C@H]1C(=O)N[C@@H](Cc1ccccc1)C(=O)N[C@H](C)C(=O)N[C@@H](Cc1ccccc1)C(N)=O [compound 715]

Ki ([1]; Table 3B): > 1000 nM
Compound: H-FVPTDVAPFAF-NH2 [compound 717]

Ki ([1]; Table 3B): > 1000 nM
Compound: CC(C)[C@H](NC(=O)[C@H](CC(=O)O)NC(=O)[C@@H](NC(=O)[C@@H]1CCCN1C(=O)[C@@H](NC(=O)[C@@H](N)Cc1ccccc1)C(C)C)[C@@H](C)O)C(=O)NCC(=O)N1CCC[C@H]1C(=O)N[C@@H](Cc1ccccc1)C(=O)N[C@@H](C)C(=O)N[C@H](Cc1ccccc1)C(N)=O [compound 720]

Ki ([1]; Table 3B): > 1000 nM
Compound: CC(C)[C@H](NC(=O)[C@H](CC(=O)O)NC(=O)[C@@H](NC(=O)[C@@H]1CCCN1C(=O)[C@@H](NC(=O)[C@@H](N)Cc1ccccc1)C(C)C)[C@@H](C)O)C(=O)NCC(=O)N1CCC[C@H]1C(=O)N[C@H](Cc1ccccc1)C(=O)N[C@@H](C)C(=O)N[C@@H](Cc1ccccc1)C(N)=O [compound 712]

Ki ([1]; Table 3B): > 1000 nM
Compound: CC(C)[C@H](NC(=O)[C@H](CC(=O)O)NC(=O)[C@@H](NC(=O)[C@@H]1CCCN1C(=O)[C@@H](NC(=O)[C@@H](N)Cc1ccccc1)C(C)C)[C@@H](C)O)C(=O)NCC(=O)N1CCC[C@@H]1C(=O)N[C@@H](Cc1ccccc1)C(=O)N[C@@H](C)C(=O)N[C@@H](Cc1ccccc1)C(N)=O [compound 713]
